Measurements from patent publication US20170008888A1 (KYORIN PHARMACEUTICAL CO., LTD., priority 2014, published 2017).
Where two headings read alike, the source gives them in different places.

Assays:
[1] = system: human CD4+ T cells; experiment: Cytokines produced by human CD4+ T cells stimulated with PMA/ionomycin; assay type: cell-based; settings: 10 μM compound, PMA/ionomycin 20 h
Text: Freshly isolated human peripheral blood mononuclear cells (PBMCs) were purchased from Astarte Biologics (Redmond, Wash.). CD4+ T cells were isolated from the PBMCs using the EasySep Negative Selection Human CD4+ T Cell Enrichment Kit (Stemcell Technologies, Vancouver, Canada) according to manufacturer's instructions briefly as follows: Unwanted cells were specifically labeled with a cocktail of bispecific tetrameric antibody complexes (TAC) against dextran and cell surface antigens (CD8, CD14, CD16, CD19, CD20, CD36, CD56, CD66b, CD123, TCRγ/δ, glycophorin A). Labeled cells were then targeted for removal by incubation with dextran-coated magnetic particles, leaving the desired CD4+ T cells.
Human CD4+ T cells, isolated as shown in protocol A, were seeded at 2e6 cells/ml in RPMI 1640 containing 10% (v/v) charcoal-dextran treated, heat inactivated FBS (Omega Scientific, Tarzana, Calif.), 0.05 mM 2-Mercaptoethanol (Sigma-Aldrich, St. Louis, Mo.), and 1×Pen/Strep Amphotericin B (Lonza, Allendale, N.J.). Cells were pre-treated with test compounds (10 μM) for 1 h at 37° C. in a humidified atmosphere at 5% CO2. Cells were then stimulated with 50 ng/ml phorbol 12-myristate 13-acetate (PMA)(Sigma-Aldrich, St. Louis, Mo.)+1 μg/ml ionomycin (Life Technologies, Grand Island, N.Y.) for 20 h at 37° C. in a humidified atmosphere at 5% CO2. Supernatant was collected and analyzed using Bio-Plex Pro Human Th17 Cytokine 15-Plex Panel (Bio-Rad Laboratories, Hercules, Calif.) as per manufacturer's protocols. Magnetic beads were read on the Bio-Plex MAGPIX multiplex reader instrument using the accompanying xPONENT 4.2 acquisition software (Bio-Rad Laboratories, Hercules, Calif.). Data were analyzed via the Bio-Plex Manager software v6.1 (Bio-Rad Laboratories).
IL-1β, IL-2, IL-7, and IL-12 (p70) were below the limit of detection under conditions used. The concentrations of the observed analytes of the DMSO control, from top to bottom as listed, are as follows: 31, 585, 24178, 22, 48, 91, 728, 94, 156, 705, 15, 1045, 5501 pg/ml.

[2] = system: primary asthmatic human bronchial epithelial cells; experiment: IL-17A- or IL-17F-mediated cytokine response by primary asthmatic human bronchial epithelial cells; assay type: cell-based; settings: Epithelial cell, 48 h, 48 h
Procedure: (§1) The virally immortalized, normal human bronchial epithelial cell line BEAS-2B was purchased from ATCC (Manassas, Va.). Primary bronchial epithelial cells isolated from a patient diagnosed with asthma were obtained from Lonza (Allendale, N.J.). Both cells were maintained in complete Bronchial Epithelial Cell Growth Medium (BEGM) (Lonza). Cells were seeded at 1e5 cells/ml and incubated at 37° C. in a humidified atmosphere at 5% CO2 overnight to adhere. Cells were pre-treated with test compounds (10 μM down by ⅕ in a 3- or 4-point serial dilution series) for 1 h at 37° C. in a humidified atmosphere at 5% CO2. DMSO at a final concentration of 0.1% served as the non-inhibited control. Budesonide (Selleck Chemicals, Houston, Tex.), a clinically approved glucocorticoid steroid for the treatment of asthma, was tested as a positive control at 0.25 μM. Cells were stimulated with 50 ng/ml of either human recombinant IL-17A or IL-17F (eBioscience, San Diego, Calif.), for 48 h. Supernatant was then collected and analyzed for cytokine concentrations using the Bio-Plex Pro Human Cytokine 17-Plex Panel (Bio-Rad Laboratories, Hercules, Calif.) according to the manufacturer's instructions. Magnetic beads were measured on the Bio-Plex MAGPIX multiplex reader instrument using the accompanying xPONENT 4.2 acquisition software (Bio-Rad Laboratories). Data were analyzed via the Bio-Plex Manager software v6.1 (Bio-Rad Laboratories). For the primary asthmatic bronchial epithelial cells, five (+IL-17F) to thirteen (+IL-17A) cytokines were in range of detection under the conditions used. […] Select cytokines were analyzed for comparison using the BEAS-2B cell line.
BLQ: cytokine levels were below limits of quantitation.

[3] = system: immortalized normal human bronchial epithelial BEAS-2B cells; experiment: IL-17A- or IL-17F-mediated cytokine response by BEAS-2B cells; assay type: cell-based; settings: 48 h
Procedure: as §1

[4] = target: T1, PCAF (Homo sapiens, UniProt Q92831); experiment: Bromodomain binding assay: PCAF
T1 construct: made in house; host or cells: E. coli host derived from the BL21 strain (T7 phage lysate)
T1 sequence (Q92831 723-827 limits assumed): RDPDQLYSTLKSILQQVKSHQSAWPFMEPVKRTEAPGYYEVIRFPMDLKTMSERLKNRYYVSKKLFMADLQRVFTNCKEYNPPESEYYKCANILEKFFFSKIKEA
Procedure: (§2) T7 phage strains displaying bromodomains were grown in parallel in 24-well blocks in an E. coli host derived from the BL21 strain. E. coli were grown to log-phase and infected with T7 phage from a frozen stock (multiplicity of infection=0.4) and incubated with shaking at 32° C. until lysis (90-150 minutes). The lysates were centrifuged (5,000×g) and filtered (0.2 μm) to remove cell debris. […] The liganded beads were blocked with excess biotin and washed with blocking buffer (SeaBlock (Pierce), 1% BSA, 0.05 Tween 20, 1 mM DTT) to remove unbound ligand and to reduce non-specific phage binding. […] Test compounds (T62 and 46) were prepared as 1000× stocks in 100% DMSO and subsequently diluted 1:10 in monoethylene glycol (MEG) to create stocks at 100× the screening concentration (resulting stock solution is 10% DMSO/90% MEG). The compounds were then diluted directly into the assays such that the final concentration of DMSO and MEG were 0.1% and 0.9%, respectively. All reactions were performed in polystyrene 96-well plates in a final volume of 0.135 ml. […] The bromodomain concentration in the eluates was measured by qPCR. Compounds were assayed for binding activity against a panel of 40 bromodomain-containing proteins.

[5] = target: T2, BRD3 (Homo sapiens, UniProt Q15059); experiment: Bromodomain binding assay: BRD3
T2 construct: read out by qPCR of the phage DNA
T2 sequence (Q15059 whole entry): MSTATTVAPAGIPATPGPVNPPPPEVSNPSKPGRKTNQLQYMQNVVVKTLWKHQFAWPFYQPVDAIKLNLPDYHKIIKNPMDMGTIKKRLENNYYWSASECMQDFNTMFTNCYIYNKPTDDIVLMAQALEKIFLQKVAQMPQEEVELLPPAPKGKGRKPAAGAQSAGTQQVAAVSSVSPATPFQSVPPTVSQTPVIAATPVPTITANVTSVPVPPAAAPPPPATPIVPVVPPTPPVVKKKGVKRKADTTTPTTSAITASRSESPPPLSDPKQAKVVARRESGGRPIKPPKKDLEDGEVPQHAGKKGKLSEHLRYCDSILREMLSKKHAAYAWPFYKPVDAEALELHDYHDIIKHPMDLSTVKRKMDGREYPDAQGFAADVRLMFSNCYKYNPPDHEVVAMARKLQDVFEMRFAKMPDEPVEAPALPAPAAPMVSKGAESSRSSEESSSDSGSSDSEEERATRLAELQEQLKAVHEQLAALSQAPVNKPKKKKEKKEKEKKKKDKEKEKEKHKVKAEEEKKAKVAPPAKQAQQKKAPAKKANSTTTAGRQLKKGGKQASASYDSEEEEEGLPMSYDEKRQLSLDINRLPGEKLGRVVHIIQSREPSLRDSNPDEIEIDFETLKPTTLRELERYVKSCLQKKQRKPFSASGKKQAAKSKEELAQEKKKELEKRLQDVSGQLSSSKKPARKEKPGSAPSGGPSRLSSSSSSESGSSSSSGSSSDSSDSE
Procedure: as §2

[6] = read-out: Percent inhibition of G-CSF (relative to DMSO control)
[7] = read-out: Percent inhibition of GM-CSF (relative to DMSO control)
[8] = read-out: Percent inhibition of IFNγ (relative to DMSO control)
[9] = read-out: Percent inhibition of IL-4 (relative to DMSO control)
[10] = read-out: Percent inhibition of IL-5 (relative to DMSO control)
[11] = read-out: Percent inhibition of IL-6 (relative to DMSO control)
[12] = read-out: Percent inhibition of IL-10 (relative to DMSO control)
[13] = read-out: Percent inhibition of IL-13 (relative to DMSO control)
[14] = read-out: Percent inhibition of IL-17A (relative to DMSO control)
[15] = read-out: Percent inhibition of MCP-1 (relative to DMSO control)
[16] = read-out: Percent inhibition of MIP-1β (relative to DMSO control)
[17] = read-out: Percent inhibition of TNFα (relative to DMSO control)
[18] = +50 ng/ml IL-17A, read-out: EC50 values (μM), G-CSF
[19] = +50 ng/ml IL-17A, read-out: EC50 values (μM), GM-CSF
[20] = +50 ng/ml IL-17A, read-out: EC50 values (μM), IFN-γ
[21] = +50 ng/ml IL-17A, read-out: EC50 values (μM), IL-1β
[22] = +50 ng/ml IL-17A, read-out: EC50 values (μM), IL-2
[23] = +50 ng/ml IL-17A, read-out: EC50 values (μM), IL-6
[24] = +50 ng/ml IL-17A, read-out: EC50 values (μM), IL-8
[25] = +50 ng/ml IL-17A, read-out: EC50 values (μM), MCP-1
[26] = +50 ng/ml IL-17F, read-out: EC50 values (μM), G-CSF
[27] = +50 ng/ml IL-17F, read-out: EC50 values (μM), IFN-γ
[28] = +50 ng/ml IL-17F, read-out: EC50 values (μM), IL-1β
[29] = +50 ng/ml IL-17F, read-out: EC50 values (μM), IL-6
[30] = +50 ng/ml IL-17F, read-out: EC50 values (μM), IL-8
[31] = read-out: Percent inhibition of IL-8 (relative to DMSO control)

Row | EC50 [2, 18] [µM] | EC50 [2, 19] [µM] | EC50 [2, 20] [µM] | EC50 [2, 21] [µM] | EC50 [2, 22] [µM] | EC50 [2, 23] [µM] | EC50 [2, 24] [µM] | EC50 [2, 25] [µM] | SMILES | inhibition at 10 µM [1, 6] [%] | inhibition at 10 µM [1, 7] [%] | inhibition at 10 µM [1, 8] [%] | inhibition at 10 µM [1, 9] [%] | inhibition at 10 µM [1, 10] [%] | inhibition at 10 µM [1, 11] [%] | inhibition at 10 µM [1, 12] [%] | inhibition at 10 µM [1, 13] [%] | inhibition at 10 µM [1, 14] [%] | inhibition at 10 µM [1, 15] [%] | inhibition at 10 µM [1, 16] [%] | inhibition at 10 µM [1, 17] [%] | other results
1 | 2.68 | 4.06 | > 10 | 1.57 | > 10 | 0.56 | 0.63 | > 10 | CCOc1cc(C(=O)N2CCC(N3CCN(C)CC3)CC2)ccc1Nc1cc2c(cn1)N(C)C(=O)c1occc1N2C [Compound 65] | 36.1 | 89.5 | 12.3 | 10.1 | 47.7 | 87.7 | 98 | 18.3 | 39.3 | 64.2 | 55.8 | 56.9 | EC50 [2, 26]: 1.77 µM; EC50 [2, 27]: 1.98 µM; EC50 [2, 28]: 1.57 µM; EC50 [2, 29]: 0.59 µM; EC50 [2, 30]: 1.27 µM
2 | 1.66 | 3.38 | > 10 | 1.26 | 10.5 | 0.5 | 0.51 | 6.25 | CCOc1cc(C(=O)N2CCC(N3CCN(C)CC3)CC2)ccc1Nc1cc2c(cn1)N(C)C(=O)c1ccccc1N2C [Compound 61] | 25.3 | 96.6 | -11.8 | -7.7 | 21.9 | 85.8 | 97.6 | 0.6 | 45.4 | 65.5 | 59.2 | 50.9 | EC50 [3, 23]: 0.68 µM; EC50 [3, 24]: 0.42 µM; EC50 [3, 29]: 0.42 µM; EC50 [3, 30]: 0.51 µM; EC50 [2, 26]: 0.91 µM; EC50 [2, 27]: 0.6 µM; EC50 [2, 28]: 0.79 µM; EC50 [2, 29]: 0.38 µM; EC50 [2, 30]: 0.52 µM
3 |  |  |  |  |  |  |  |  | CCOc1cc(C(=O)NCC2CC2)ccc1Nc1cc2c(cn1)N(C)C(=O)c1ccccc1N2C [Compound 57] | 34.5 | 95.9 | 50.9 | 31.4 | 42.8 | 91.1 | 97.7 | 55.6 | 78.8 | 70.6 | 56.2 | 58.3 | inhibition at 10 µM [1, 31]: -44.1%
4 |  |  |  |  |  |  |  |  | CCOc1cc(C(=O)N2CCNCC2)ccc1Nc1cc2c(cn1)N(C)C(=O)c1ccccc1N2C [Compound 62] | 27.6 | 95.4 | 15.6 | -4.8 | 29.7 | 86.9 | 97.2 | 19.8 | 49.7 | 66.1 | 66.9 | 70.1 | inhibition at 10 µM [1, 31]: -179%
5 | 0.66 | 1.39 | > 10 | 0.95 | 5.31 | 0.16 | 0.15 | 6.1 | CCOc1cc(C(=O)N2CC[C@@H](N(C)C)C2)ccc1Nc1cc2c(cn1)N(C)C(=O)c1ccccc1N2C [Compound 115] |  |  |  |  |  |  |  |  |  |  |  |  | EC50 [3, 23]: 0.21 µM; EC50 [3, 24]: 0.42 µM; EC50 [3, 29]: 0.14 µM; EC50 [3, 30]: 0.13 µM; EC50 [2, 26]: 0.21 µM; EC50 [2, 27]: 0.34 µM; EC50 [2, 28]: 0.38 µM; EC50 [2, 29]: 0.34 µM; EC50 [2, 30]: 0.28 µM
6 |  |  |  |  |  |  |  |  | CCOc1cc(C(=O)N[C@H]2CC[C@H](O)CC2)ccc1Nc1cc2c(cn1)N(C)C(=O)c1ccccc1N2C [Compound T62] |  |  |  |  |  |  |  |  |  |  |  |  | Kd [4]: > 20000 nM; Kd [5]: 110 nM
